Laboratory results published in patent US9133242B2, “Peptide for use as a medicament, in particular for the treatment of cancer” (priority 2010, dated 2015).
Entries after “also recorded” stand apart in the source; their conditions may differ. Where no end group is shown, it is not given here.

Legend:
Format in all cases: cell-based
A 549 (Human lung tumor) = assay: MTT cell viability, A549 lung cancer line; details: variants tested on the A549 line; for evaluation of the activity (in words): compared with peptide SEQ. 1
Experimental: Approximately 10 000 cells were seeded, in a volume of 0.2 mL per well, into 96-well microplates for 24 hours before treatment with the peptide of SEQ. 1. The cells were incubated for 48 to 72 hours at 37° C. in a CO2 incubator in the presence or absence of the peptide of SEQ. 1 at various concentrations.
Following this incubation, MTT reagent or 3-(4,5-dimethyl[…])-2,5-diphenyltetrazolium bromide (0.5 mg/ml in a volume of 0.1 ml) was added to each well and incubated for 2 hours at 37° C.
The tetrazolium ring contained by the MTT is then reduced by the succinate dehydrogenase of the live cells, to give formazan. Next, the supernatant was removed and 0.1 ml of lysis buffer (isopropanol containing 10% of triton×100 and 10% of 1N HCl) was added in order to dissolve the bluish violet formazan precipitate formed. After a few minutes, the absorbance was determined at ambient temperature using a microplate reader at a test wavelength of 562 nm. Wells not comprising peptide of SEQ. 1 were used so as to verify the viability of control cells. IC 50 (concentration of peptide of SEQ. 1 causing 50% cytotoxicity on these cell lines) values for each cell variety were evaluated by means of the ratio of the absorbance of the treated cells to the absorbance of the control cells. […]

[1] = test system: FIBRO 1 and FIBRO 2 nontumorigenic fibroblast cells; assay: Immunofluorescent labeling of microtubule network, healthy fibroblasts; details: human fibroblasts FIBRO 1 and FIBRO 2, 15 μM
Experimental: FIG. 4 represents photos of non-tumor cell lines, FIBRO 1 and FIBRO 2 (fibroblast cells), treated with the peptide of SEQ. 1 at 15 μM and not treated with this peptide (control);
The specific activity of the peptide of SEQ. Two varieties of nontumorigenic fibroblast cells: FIBRO 1 and FIBRO 2, were brought into contact with the peptide of SEQ. 1 in order to see whether the microtubule network of healthy cells was also disrupted by the peptide. […] 1 (no modification of polymerized tubulin density), at the very least at concentrations of peptide of SEQ. 1 used for the cancer cells (15 μM). This observation represents an important advance of the present invention.

[2] = test system: TX 1 cells (line derived from breast tumors which no longer respond to Taxol); assay: Growth inhibition of Taxol-resistant TX 1 cells; details: after 24 H of culture
Experimental: (§1) The studies were carried out on two cell lines, TX 1 and TX 2, derived from breast tumors which no longer respond to Taxol. […] 1 and the peptide of SEQ. 7. […]

[3] = test system: TX 2 cells (line derived from breast tumors which no longer respond to Taxol); assay: Growth inhibition of Taxol-resistant TX 2 cells; details: after 24 H of culture
Experimental: as §1

Row | Substance | evaluation of the activity (in words) (A 549 (Human lung tumor)) | further results
1 | INWLAIAKKVAGML [SEQ. 3, INWLAIAKKVAGML-NH2] | absolutely equivalent to the peptide SEQ. 1; also recorded: Very good activity | 
2 | INWLKIAKKVAG-NH2 [SEQ. 19, INWLKIAKKVAG-NH2] | Medium activity | 
3 | INWLKIAKKVAGML [SEQ. 2] | Medium activity | IC50 (A 549 (Human lung tumor)): ~15 µM
4 | INWLAIAAKVAGML [SEQ. 4, INWLAIAAKVAGML-NH2] | absolutely equivalent to the peptide SEQ. 1; also recorded: Very good activity | 
5 | INWLKIAKKVAGML-NH2 [SEQ. 1, INWLKIAKKVAGML-NH2] |  | modification of polymerized tubulin density in healthy cells [1]: do not respond at all
6 | INWLKIAKKVKGML [SEQ. 9, INWLKIAKKVKGML-NH2] | absolutely equivalent to the peptide SEQ. 1; also recorded: Very good activity | 
7 | INWLKIAKKVAGM-NH2 [SEQ. 18, INWLKIAKKVAGM-NH2] | Medium activity | 
8 | INWKKIAKKVAGML-NH2 [SEQ. 7, INWKKIAKKVAGML-NH2] | absolutely equivalent to the peptide SEQ. 1; also recorded: Very good activity | growth inhibition [2]: significant; growth inhibition [3]: significant
